Experiment [1] deals with Smad3 mutant mice. Nature of the experiment: Colorectal tumor development in Smad3 mutant mice given antibiotics in drinking water. The class given is in vivo. How it is done: I. Orally-delivered aminoglycosides reduce development of colon cancer in animal models predisposed to colon neoplasia. Smad3 mutant and APC/MIN mice are fed on a standard laboratory diet, with aminoglycoside antibiotics added to the water. […] Metronidazole was diluted in sterile drinking water to a final concentration of 0.5 mg/ml. The same concentrations are used for either combined or separate drug trials.
Smad3 mutant mice are maintained in 129Sv strain; APC/MIN mice are maintained in C57BL/6J. Both Smad3 mutant and APC/MIN mice are started on antibiotics at 5 weeks of age (range: 4-6 weeks). Mice are monitored and scored for survival and visible rectal tumors. Mice are sacrificed when showing severe distress (typically rectal prolapse with significant dehydration,. hypokinesis, cachexia). At sacrifice mice are dissected and their overall state assessed. Large intestines were harvested, opened longitudinally, and tumor number, location, and size recorded.

Experiment [2] concerns chick embryo chorioallantoic membranes (CAM). As to conditions: cited from earlier work.
The subject of experiment [3] is phospholipase C (PLC). Particulars: cited from earlier work.
Experiment [4] relates to cultured human endothelial cells. Particulars: cited from earlier work.
For experiment [5], the system named is azoxymethane (AOM) and 1,2-dimethyl hydrazine (DMH)-induced colon cancers. Particulars: AOM and DMH chemical carcinogenesis models; cited from earlier work.
Experiment [6] relates to colorectal polyps. Nature of the experiment: Double-blind, placebo-controlled study of colorectal polyps in patients with familial adenomatous polyposis. It is filed as in vivo, human. As to conditions: 1 or 2 g/day orally, after six months, change from base line. The method, then: II. […] All patients undergo endoscopy at the beginning and end of the study. The number and size of polyps is determined from photographs and videotapes; the response to treatment is expressed as the mean percent change from base line.

In experiment [7] the test system is colorectal adenomas. The experiment can be described thus: Double-blind, placebo-controlled trial of colorectal adenomas in patients with previous colorectal cancer. The class given is in vivo, human. As to conditions: daily use of 1 or 2 g, patients with a history of colorectal cancer. An excerpt:
III. Orally-delivered aminoglycosides reduce development of colorectal adenomas in patients with previous colorectal cancer. […] We determine the proportion of patients with adenomas, the number of recurrent adenomas, and the time to the development of adenoma between randomization and subsequent colonoscopic examinations. Relative risks are adjusted for age, sex, cancer stage, the number of colonoscopic examinations, and the time to first colonoscopy.

The subject of experiment [8] is cultured angiogenin-secreting tumor cells. As to conditions: injected, mice; cited from earlier work.

With `Cc1ncc([N+](=O)[O-])n1CCO` [metronidazole], the “tumor development compared with non-treated controls” value in experiment [1] (0.5 mg/ml in drinking water) is “not significantly different from non-treated controls”.
With gentamicin, the “angiogenin-induced angiogenesis / anti-angiogenic activity” value in experiment [2] was “lack anti-angiogenic activity”.
For `NCC[C@H](O)C(=O)N[C@@H]1C[C@H](N)[C@@H](O[C@H]2O[C@H](CN)[C@@H](O)[C@H](O)[C@H]2O)[C@H](O)[C@H]1O[C@H]1O[C@H](CO)[C@@H](O)[C@H](N)[C@H]1O` [amikacin], in experiment [2], the “angiogenin-induced angiogenesis / anti-angiogenic activity” value was “lack anti-angiogenic activity”.
On to `COc1ccc2c(c1)CC[C@@H]1[C@@H]2CC[C@]2(C)[C@@H](NCCCCCCN3C(=O)C=CC3=O)CC[C@@H]12` [U-73122], for which the “angiogenin-induced angiogenesis / anti-angiogenic activity” value in experiment [2] was “similarly inhibited angiogenin-induced cell proliferation and angiogenesis”. The PLC inhibition entry in experiment [3] was “PLC inhibitor”. The angiogenin-induced cell proliferation entry in experiment [4] is “similarly inhibited angiogenin-induced cell proliferation and angiogenesis”.
With neomycin, the “angiogenin-induced angiogenesis / anti-angiogenic activity” value in experiment [2] was “able to reduce angiogenin-induced cell proliferation and angiogenesis”. The “incidence of colon adenocarcinomas” value in experiment [5] is listed as “may actually increase the incidence of colon adenocarcinomas”. In experiment [6], the “reduction in the mean number of colorectal polyps” value is on record as around 30% and the “reduction in the polyp burden (the sum of polyp diameters)” value is around 30%. The “occurrence of new colorectal adenomas” value in experiment [7] is recorded as “decreases the occurrence of new colorectal adenomas”. In experiment [3], the PLC inhibition entry is “inhibits PLC”. For the same compound, the angiogenin-induced cell proliferation result in experiment [4] was “able to reduce angiogenin-induced cell proliferation and angiogenesis”. Moreover, in experiment [8], the “growth of transplanted angiogenin-secreting tumor cells” value is listed as “able to reduce growth”. Further, the “mice in which development of tumors was prevented” value in experiment [1] (oral treatment, at 24 weeks, 9 of 10 untreated mice developed colorectal tumors) was 11 of 12.
On to `NC[C@@H]1O[C@H](O[C@H]2[C@@H](O)[C@H](O[C@@H]3[C@@H](O)[C@H](N)C[C@H](N)[C@H]3O[C@H]3O[C@H](CO)[C@@H](O)[C@H](O)[C@H]3N)O[C@@H]2CO)[C@H](N)[C@@H](O)[C@@H]1O` [paromomycin], for which, in experiment [2], the “angiogenin-induced angiogenesis / anti-angiogenic activity” value is reported as “lack anti-angiogenic activity”. In experiment [6], the “reduction in the mean number of colorectal polyps” value is listed as around 30% and the “reduction in the polyp burden (the sum of polyp diameters)” value is reported as around 30%. In addition, the “occurrence of new colorectal adenomas” value in experiment [7] was “decreases the occurrence of new colorectal adenomas”.
Turning to `[H]/N=C(/N)N[C@H]1[C@H](O)[C@@H](O)[C@H](O[C@@H]2O[C@@H](C)[C@](O)(C=O)[C@H]2O[C@@H]2O[C@@H](CO)[C@H](O)[C@@H](O)[C@@H]2NC)[C@@H](N/C(N)=N\[H])[C@@H]1O` [streptomycin], the “angiogenin-induced angiogenesis / anti-angiogenic activity” value in experiment [2] is “lack anti-angiogenic activity”.
